# Test results published in PMC8466300, “Investigating the Central Nervous System Disposition of Actinomycin D: Implementation and Evaluation of Cerebral Microdialysis and Brain Tissue Measurements Supported by UPLC-MS/MS Quantification” (Pharmaceutics, 2021).
# Values joined by “and” are separate entries in the source; they are usually repeats but may differ in a detail not shown here. Equal entries are not always repeated. Where two headings read alike, the source gives them in different places. *1 amine or outer side, *2 acyl side, *3 side chain or, on linkers, in order; H or OH if unused. Where a SMILES comes first, the peptide text is derived from it. Bridges are numbered along the chain shown (N, C = ends). Roman numbers before positions name the chains, in order. [ ]: non-standard residue; d: D form. Actinocin(9to1) = Cc1c2oc3c(C)ccc(C(=O)[*:1])c3nc-2c(C(=O)[*:2])c(N)c1=O; NMeV = CN[C@H](C(=O)O)C(C)C; Sar = CNCC(=O)O
# Legend:
# P-gp/ABCB1 = P-gp/ABCB1 (Homo sapiens, UniProt P08183); settings: 0.01 µM, 10-120 min, 37 °C, 1 million cells, duplicate, cell homogenate UPLC-MS/MS; L-MDR1 vs LLC-PK1
# Method: To confirm the P-gp substrate characteristics of actinomycin D, we conducted growth inhibition and uptake assays in a cell line over-expressing human P-gp/ABCB1 (L-MDR1 cells) in comparison to the respective parental cell line (LLC-PK1). L-MDR1 cells were kindly provided by A. H. Schinkel (The Netherlands Cancer Institute, Division of Experimental Therapy, Amsterdam, The Netherlands). The cells were cultured under standard cell culture conditions with medium M199 supplemented with 10% FCS, 2 mM glutamine, 100 U/mL penicillin, and 100 µg/mL streptomycin sulfate. The culture medium for L-MDR1 was supplemented with 0.64 µM vincristine to maintain P-gp/ABCB1 expression. One day before using the cells in the assays, both cell lines were fed with vincristine-free culture medium.
# P-gp = settings: cited from earlier work
# [1] = Plasma and brain tissue concentrations after intravenous bolus injection (CNS disposition); assay type: in vivo, mice; settings: for Brain-to-Plasma Ratio: total concentrations
# Method: The experiments were carried out in accordance with the European regulations for care and use of laboratory animals (2010/63/EU) under the German license number G-187/18 and the internal reference number DKFZ374, approved by the responsible regional council (Regierungspräsidium Karlsruhe, Germany). Female 8-week-old NSG mice (NOD.Cg-Prkdc^scid Il2rg^tm1Wjl/SzJ-NOD-SCID gamma-mice) with a weight of approximately 25 g were used for the studies. For microdialysis experiments, a microdialysis guide cannula was stereotactically implanted into the right striatum and stabilized with screws and dental acrylic cement. Mice received analgesia (metamizole) and anesthesia with isoflurane during surgery. After six days of recovery, the microdialysis procedure was initiated. A microdialysis probe (CMA7, 1 mm, molecular cut-off 55 kDa, CMA Microdialysis AB, Kist, Sweden) was inserted through the guide cannula and connected to a pump system operating at a constant flow rate of 0.5 µL/min Ringer-1 % bovine serum albumin (BSA) solution. Throughout the study, mice could freely move. Microdialysis samples were serially collected each hour. Because the number of blood collections in individual mice is limited, we estimated the optimal timepoints for a pharmacokinetic feasibility study by allometric simulation of actinomycin D’s pharmacokinetic profile in mice according to published data in humans. For the allometric simulation, mouse plasma pharmacokinetic profiles were simulated by allometrically scaling the clearance and volumes parameters using classic exponents (0.75 for clearances and 1 for volumes) […], based on 0.5 mg/kg dosage. […] Therefore, we chose to take blood samples 0.75, 6, and 22 h after intravenous bolus injection into the tail vein for the assay’s feasibility pharmacokinetic experiment. Three animals received an intravenous bolus injection of 0.5 mg/kg actinomycin D in 0.125 mL per mouse (25 g) of a 0.1 mg/mL dosing solution. This dosage corresponds to the usual therapy protocols in humans according to allometric scaling. Full blood samples were transferred into citrate tubes (Sarstedt, Germany) and centrifuged at 1600× g for 10 min to generate plasma samples, which were stored at −80 °C until analysis. For determination of actinomycin D disposition in the CNS, brain tissue, and plasma samples were harvested following euthanasia with increasing concentrations of CO2 at 2 h (three animals) or 22 h (four animals) after intravenous bolus injection of 0.5 mg/kg actinomycin D. Samples were stored at −80 °C until analysis. For validation of the UPLC-MS/MS quantification, blank plasma from 6 naïve mice was used and blank brain tissue was obtained from 2 unexposed mice. Whole brain tissue was homogenized using a Bead Ruptor 4 homogenizer (Omni International Inc, Kennesaw, GA, USA) in acetonitrile (ACN)/water (1/19, v/v) + 0.5 % Triton X and 0.1 % formic acid (FA) (100 mg brain tissue/mL) in 2.0 mL tubes containing ~25 glass beads (0.75–1 mm; Carl Roth GmbH, Karlsruhe, Germany) for 2 × 1 min.
# For protein precipitation of plasma microsamples, an excess of ACN (50 µL) with 0.1% FA containing the IS was applied to an Impact® 96-well protein precipitation plate (Phenomenex, Torrance, CA, USA). Subsequently, 20 µL of the plasma samples were added and the plates sealed and shaken for 1 min. Brain tissue homogenate samples were processed accordingly. For protein depletion, samples were filtered into a 96-well collection plate (Waters, Milford, MA, USA) by applying positive pressure with a 96-well positive pressure unit (Waters, Milford, MA, USA) operated with air overpressure of 5 psi. After addition of 40 µL of water containing 0.1% FA, the collection plates were sealed, shaken, and extracts injected onto the UPLC system.
# [2] = female NSG mice, 0.5 mg/kg i.v. bolus, estimates; for Cmax: plasma at 0.75, 6, 22 h, UPLC-MS/MS; for t1/2 (half-life): plasma up to 22 h; for AUC (extrapolated to infinity): plasma
# Method: The experiments were carried out in accordance with the European regulations for care and use of laboratory animals (2010/63/EU) under the German license number G-187/18 and the internal reference number DKFZ374, approved by the responsible regional council (Regierungspräsidium Karlsruhe, Germany). Female 8-week-old NSG mice (NOD.Cg-Prkdc^scid Il2rg^tm1Wjl/SzJ-NOD-SCID gamma-mice) with a weight of approximately 25 g were used for the studies. […] Mice received analgesia (metamizole) and anesthesia with isoflurane during surgery. […] Therefore, we chose to take blood samples 0.75, 6, and 22 h after intravenous bolus injection into the tail vein for the assay’s feasibility pharmacokinetic experiment. […] Full blood samples were transferred into citrate tubes (Sarstedt, Germany) and centrifuged at 1600× g for 10 min to generate plasma samples, which were stored at −80 °C until analysis. […] For validation of the UPLC-MS/MS quantification, blank plasma from 6 naïve mice was used and blank brain tissue was obtained from 2 unexposed mice.
# For protein precipitation of plasma microsamples, an excess of ACN (50 µL) with 0.1% FA containing the IS was applied to an Impact® 96-well protein precipitation plate (Phenomenex, Torrance, CA, USA). Subsequently, 20 µL of the plasma samples were added and the plates sealed and shaken for 1 min. […] For protein depletion, samples were filtered into a 96-well collection plate (Waters, Milford, MA, USA) by applying positive pressure with a 96-well positive pressure unit (Waters, Milford, MA, USA) operated with air overpressure of 5 psi. After addition of 40 µL of water containing 0.1% FA, the collection plates were sealed, shaken, and extracts injected onto the UPLC system.
# [3] = rapid equilibrium dialysis, 12 h, 37 °C
# Method: To determine the previously unknown unbound fraction of actinomycin D in plasma and brain tissue homogenate, we performed rapid equilibrium dialysis (RED) in duplicate. For this, samples were spiked with drug solutions that were prepared in plasma or brain tissue homogenate to obtain minimally diluted samples (30 ng/mL for plasma and 30 ng/g for brain tissue). The free actinomycin D tissue fraction was also quantified in a pooled sample of brain tissue homogenates from the three mice euthanized 2 h after dosing. Determinations were performed on a RED apparatus (ThermoFisher Scientific, Waltham, MA, USA) according to the manufacturer´s instructions under gentle agitation for 12 h at 37 °C.
# Chain of P-gp/ABCB1 (P08183 whole entry): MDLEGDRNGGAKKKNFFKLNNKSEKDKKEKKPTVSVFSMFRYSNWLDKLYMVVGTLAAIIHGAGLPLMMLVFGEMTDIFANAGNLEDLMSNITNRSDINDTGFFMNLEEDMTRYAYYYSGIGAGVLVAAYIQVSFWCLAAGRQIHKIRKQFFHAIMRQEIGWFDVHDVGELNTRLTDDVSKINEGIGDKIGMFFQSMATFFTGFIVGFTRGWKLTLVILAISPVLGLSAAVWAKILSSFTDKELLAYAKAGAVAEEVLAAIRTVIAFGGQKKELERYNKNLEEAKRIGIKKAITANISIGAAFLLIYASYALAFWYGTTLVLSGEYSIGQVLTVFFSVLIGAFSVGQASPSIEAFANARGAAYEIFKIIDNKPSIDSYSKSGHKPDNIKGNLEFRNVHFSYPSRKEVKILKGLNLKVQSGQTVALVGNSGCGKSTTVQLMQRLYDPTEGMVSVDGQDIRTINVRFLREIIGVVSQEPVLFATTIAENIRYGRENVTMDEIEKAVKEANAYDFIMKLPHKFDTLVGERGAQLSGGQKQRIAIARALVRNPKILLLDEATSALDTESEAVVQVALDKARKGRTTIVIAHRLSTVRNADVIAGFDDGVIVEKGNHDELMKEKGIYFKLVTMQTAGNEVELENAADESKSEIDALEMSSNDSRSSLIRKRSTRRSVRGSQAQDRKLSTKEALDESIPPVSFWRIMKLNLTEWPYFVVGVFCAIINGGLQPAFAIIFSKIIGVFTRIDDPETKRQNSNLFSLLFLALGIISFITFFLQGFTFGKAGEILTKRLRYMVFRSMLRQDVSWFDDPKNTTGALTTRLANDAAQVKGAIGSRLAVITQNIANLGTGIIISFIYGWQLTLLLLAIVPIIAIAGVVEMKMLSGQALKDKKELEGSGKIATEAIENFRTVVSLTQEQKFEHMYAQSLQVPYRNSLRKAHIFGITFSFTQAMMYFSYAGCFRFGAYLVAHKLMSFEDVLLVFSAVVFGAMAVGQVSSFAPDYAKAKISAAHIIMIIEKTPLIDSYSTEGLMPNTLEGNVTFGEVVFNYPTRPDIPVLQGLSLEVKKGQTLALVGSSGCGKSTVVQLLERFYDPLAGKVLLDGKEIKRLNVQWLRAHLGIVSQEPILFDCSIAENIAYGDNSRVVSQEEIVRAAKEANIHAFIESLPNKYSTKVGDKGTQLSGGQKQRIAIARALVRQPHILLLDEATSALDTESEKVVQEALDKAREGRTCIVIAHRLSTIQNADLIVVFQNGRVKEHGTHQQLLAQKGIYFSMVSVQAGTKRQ
smiles,measurement,setting,value
"Cc1c2oc3c(C)ccc(C(=O)N[C@@H]4C(=O)N[C@H](C(C)C)C(=O)N5CCC[C@H]5C(=O)N(C)CC(=O)N(C)[C@@H](C(C)C)C(=O)O[C@@H]4C)c3nc-2c(C(=O)N[C@@H]2C(=O)N[C@H](C(C)C)C(=O)N3CCC[C@H]3C(=O)N(C)CC(=O)N(C)[C@@H](C(C)C)C(=O)O[C@@H]2C)c(N)c1=O [actinomycin D, Actinomycin D] (I: T[dV]P[Sar][NMeV] / II: T[dV]P[Sar][NMeV]; ester I:1-I:C, II:1-II:C; linker I:N-II:N via Actinocin(9to1))",accumulation in P-gp over-expressing cell line versus parental cell line,P-gp/ABCB1,lower accumulation
same,brain exposure in P-gp knockout mice relative to wildtype mice,P-gp,2.3 fold
same,level at time molar at 2 h,"[1]; female, NSG (NOD.Cg-Prkdc^scid Il2rg^tm1Wjl/SzJ), mouse, brain, iv, mice, 0.5 mg/kg i.v., after 2 h, read-out: brain tissue concentration",~3 nM
same,level at time molar at 22 h,"[1]; female, NSG (NOD.Cg-Prkdc^scid Il2rg^tm1Wjl/SzJ), mouse, brain, iv, mice, 0.5 mg/kg i.v., after 22 h, read-out: brain tissue concentration",~1.2 nM
same,tissue level at time at 2 h,"[1]; female, NSG (NOD.Cg-Prkdc^scid Il2rg^tm1Wjl/SzJ), mouse, iv, mice, 0.5 mg/kg i.v., 2 h, whole brain homogenate after cardiac perfusion with PBS, UPLC-MS/MS, mean of 3 mice, read-out: Brain Actinomycin D (total brain tissue concentration)",4.1 ng/g
same,level at 2 h,"[1]; female, NSG (NOD.Cg-Prkdc^scid Il2rg^tm1Wjl/SzJ), mouse, plasma, iv, mice, 0.5 mg/kg i.v., 2 h after administration, UPLC-MS/MS, mean of 3 mice, read-out: Plasma Actinomycin D",22.7 ± 3.9 ng/mL
same,tissue level at time at 22 h,"[1]; female, NSG, mouse, iv, mice, 0.5 mg/kg i.v., 22 h, whole brain homogenate after cardiac perfusion with PBS, UPLC-MS/MS, mean of 4 mice, read-out: Brain Actinomycin D (total brain tissue concentration)",1.67 ± 0.77 ng/g
same,level at 22 h,"[1]; female, NSG, mouse, plasma, iv, mice, 0.5 mg/kg i.v., 22 h after administration, UPLC-MS/MS, mean of 4 mice, read-out: Plasma Actinomycin D",3.4 ± 1.45 ng/mL
same,Brain Actinomycin D (total brain tissue concentration),"[1]; mice, 0.5 mg/kg i.v., 2 h, whole brain homogenate after cardiac perfusion with PBS, UPLC-MS/MS, mean of 3 mice, 0.5 mg/kg",4.14 ± 0.50 ng/g
same,Brain-to-Plasma Ratio,"[1]; mice, 0.5 mg/kg i.v., 2 h, mean of 3 mice, 0.5 mg/kg",0.18 and 0.18 ± 0.03
same,Brain-to-Plasma Ratio,"[1]; mice, 0.5 mg/kg i.v., 2 h, mouse 1",0.21
same,Brain-to-Plasma Ratio,"[1]; mice, 0.5 mg/kg i.v., 2 h, mouse 2",0.18
same,Brain-to-Plasma Ratio,"[1]; mice, 0.5 mg/kg i.v., 2 h, mouse 3",0.16
same,Brain-to-Plasma Ratio,"[1]; mice, 0.5 mg/kg i.v., 22 h, mean of 4 mice",0.53 ± 0.26
same,Brain-to-Plasma Ratio,"[1]; mice, 0.5 mg/kg i.v., 22 h, mouse 4",0.80
same,Brain-to-Plasma Ratio,"[1]; mice, 0.5 mg/kg i.v., 22 h, mouse 5",0.37
same,Brain-to-Plasma Ratio,"[1]; mice, 0.5 mg/kg i.v., 22 h, mouse 6",0.18
same,Brain-to-Plasma Ratio,"[1]; mice, 0.5 mg/kg i.v., 22 h, mouse 7",0.77
same,actinomycin D concentration in brain tissue homogenate,"[1]; mouse #1, 0.5 mg/kg i.v., 2 h, homogenate at 0.1 g tissue/mL, UPLC-MS/MS",0.409 ng/mL
same,Cmax,[2]; mouse 1,22.6 ng/mL
same,Cmax,[2]; mouse 2,14.6 ng/mL
same,Cmax,[2]; mouse 3,10.3 ng/mL
same,t1/2 (half-life),[2]; mouse 1,5.07 h
same,t1/2 (half-life),[2]; mouse 2,6.14 h
same,t1/2 (half-life),[2]; mouse 3,6.90 h
same,AUC (extrapolated to infinity),[2]; mouse 1,171 ng·h/mL
same,AUC (extrapolated to infinity),[2]; mouse 2,111 ng·h/mL
same,AUC (extrapolated to infinity),[2]; mouse 3,101 ng·h/mL
same,Cl (clearance),[2]; mouse 1,1.22 mL/min
same,Vss (volume of distribution),[2]; mouse 1,0.53 L
same,Cl (clearance),[2]; mouse 2,1.87 mL/min
same,Vss (volume of distribution),[2]; mouse 2,0.98 L
same,Cl (clearance),[2]; mouse 3,2.06 mL/min
same,Vss (volume of distribution),[2]; mouse 3,1.23 L
same,free fraction in spiked brain tissue homogenate,"[3]; minimally diluted homogenate spiked at 30 ng/g, duplicate, UPLC-MS/MS",3.4%
same,free fraction in brain tissue homogenate of dosed mice,"[3]; pooled homogenates of three mice 2 h after 0.5 mg/kg i.v., estimated from response values below LLOQ",< 3%
